Laboratory results published in patent publication US9409908B2 (priority 2012, dated 2016).
Structures can show the parent of a compound that is named as a salt. Where two headings read alike, the source gives them in different places.

What was measured:
[1] = target: purified human Factor XIa (Homo sapiens (Human), UniProt P03951); assay: biochemical; type: biochemical
[2] = target: purified human plasma kallikrein (Homo sapiens (Human), UniProt P03952); assay: biochemical; type: biochemical
purified human plasma kallikrein, sequence (P03952 whole entry, looked up): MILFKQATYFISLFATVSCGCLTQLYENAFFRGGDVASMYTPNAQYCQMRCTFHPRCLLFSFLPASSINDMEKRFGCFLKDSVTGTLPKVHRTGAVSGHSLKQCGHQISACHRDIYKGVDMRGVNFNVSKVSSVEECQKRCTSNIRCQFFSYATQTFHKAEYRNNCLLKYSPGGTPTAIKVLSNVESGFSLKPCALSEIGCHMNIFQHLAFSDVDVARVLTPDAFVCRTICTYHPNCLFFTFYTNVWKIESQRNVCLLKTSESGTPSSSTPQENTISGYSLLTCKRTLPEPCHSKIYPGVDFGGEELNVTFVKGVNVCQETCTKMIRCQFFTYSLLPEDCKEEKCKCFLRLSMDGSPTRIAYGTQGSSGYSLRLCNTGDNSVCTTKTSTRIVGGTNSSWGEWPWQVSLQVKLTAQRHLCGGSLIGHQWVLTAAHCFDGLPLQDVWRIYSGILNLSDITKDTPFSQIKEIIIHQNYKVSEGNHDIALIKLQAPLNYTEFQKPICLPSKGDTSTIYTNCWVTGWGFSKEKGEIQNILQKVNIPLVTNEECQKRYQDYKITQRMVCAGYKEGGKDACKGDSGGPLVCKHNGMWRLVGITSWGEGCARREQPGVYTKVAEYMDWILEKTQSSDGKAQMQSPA
purified human plasma kallikrein, sequence (P03952 whole entry partner, looked up): as the sequence (P03952 whole entry, looked up) above

purified human Factor XIa, sequence (P03951 whole entry, looked up): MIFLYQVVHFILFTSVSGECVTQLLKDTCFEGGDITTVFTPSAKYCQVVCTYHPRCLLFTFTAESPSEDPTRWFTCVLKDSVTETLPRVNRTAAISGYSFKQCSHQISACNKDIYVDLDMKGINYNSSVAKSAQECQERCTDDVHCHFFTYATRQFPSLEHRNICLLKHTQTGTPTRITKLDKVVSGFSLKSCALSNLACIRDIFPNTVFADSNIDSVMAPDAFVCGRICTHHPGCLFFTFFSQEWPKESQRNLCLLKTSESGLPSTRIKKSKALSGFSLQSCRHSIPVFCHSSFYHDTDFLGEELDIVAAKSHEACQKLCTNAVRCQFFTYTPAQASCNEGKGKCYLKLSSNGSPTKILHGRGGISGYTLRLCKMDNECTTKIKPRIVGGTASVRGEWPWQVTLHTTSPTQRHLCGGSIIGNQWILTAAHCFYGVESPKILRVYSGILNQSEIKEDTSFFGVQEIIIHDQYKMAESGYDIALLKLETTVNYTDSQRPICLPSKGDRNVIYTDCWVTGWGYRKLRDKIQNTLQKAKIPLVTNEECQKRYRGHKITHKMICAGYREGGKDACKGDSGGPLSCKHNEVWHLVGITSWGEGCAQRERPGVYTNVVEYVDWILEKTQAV
purified human Factor XIa, sequence (P03951 whole entry partner, looked up): as the sequence (P03951 whole entry, looked up) above

Q: For `C[C@@H]1CCC[C@H](N2CCC(c3c(Br)ccc(Cl)c3F)=CC2=O)c2cc(ccn2)-c2c(ccc(F)c2F)NC1=O` [Example 204, (10R,14S)-14-[4-(6-bromo-3-chloro-2-fluorophenyl)-6-oxo-1,2,3,6-tetrahydropyridin-1-yl]-3,4-difluoro-10-methyl-8,16-diazatricyclo[13.3.1.0^2,7]nonadeca-1(19),2(7),3,5,15,17-hexaen-9-one, TFA salt], which Ki ([1]; read-out: Factor XIa Ki) is on record?
A: 4.46 nM

Q: What about the Ki ([2]; read-out: Plasma Kallikrein Ki) of the same compound?
A: 16 nM

Q: How did the Ki [1] turn out when `COC(=O)Nc1ccc2c(c1)C(=O)N[C@H](C)CCC[C@H](N1CCC(c3c(F)ccc(Cl)c3F)=CC1=O)c1cc-2ccn1` (single isomer, unassigned; diastereomer b) [Example 194, TFA salt] was run?
A: > 422 nM

Q: And the Ki ([2]; Plasma Kallikrein Ki)?
A: 310 nM

Q: With `C[C@@H]1CCC[C@H](N2CCC(c3c(C#N)ccc(Cl)c3F)=CC2=O)c2cc(ccn2)-c2c(ccc(F)c2F)NC1=O` [Example 208, 4-chloro-2-{1-[(10R,14S)-3,4-difluoro-10-methyl-9-oxo-8,16-diazatricyclo[13.3.1.0^2,7]nonadeca-1(19),2(7),3,5,15,17-hexaen-14-yl]-6-oxo-1,2,3,6-tetrahydropyridin-4-yl}-3-fluorobenzonitrile, TFA salt] as the compound, how does the Ki ([1]; read-out: Factor XIa Ki) read?
A: 1 nM

Q: What about the Ki ([2]; read-out: Plasma Kallikrein Ki) of the same compound?
A: 3.1 nM

Q: For `COC(=O)Nc1ccc2c(c1)NC(=O)[C@H](C)CCC[C@H](N1CCC(c3c(OC)ccc(Cl)c3F)=CC1=O)c1cc-2ccn1` [Example 1, Methyl N-[(10R,14S)-14-[4-(3-chloro-2-fluoro-6-methoxyphenyl)-6-oxo-1,2,3,6-tetrahydropyridin-1-yl]-10-methyl-9-oxo-8,16-diazatricyclo[13.3.1.0^2,7]nonadeca-1(19),2,4,6,15,17-hexaen-5-yl]carbamate, TFA salt], which Ki ([1]; read-out: Factor XIa Ki) is on record?
A: 0.87 nM

Q: And the Ki ([2]; read-out: Plasma Kallikrein Ki)?
A: 10 nM

Q: With `C[C@@H]1CCC[C@H](N2CCC(c3c(Br)ccc(Cl)c3F)=CC2=O)c2cc(ccn2)-c2cc(F)ccc2NC1=O` [Example 147, (10R,14S)-14-[4-(6-bromo-3-chloro-2-fluorophenyl)-6-oxo-1,2,3,6-tetrahydropyridin-1-yl]-4-fluoro-10-methyl-8,16-diazatricyclo[13.3.1.0^2,7]nonadeca-1(19),2(7),3,5,15,17-hexaen-9-one] as the compound, how does the Ki ([1]; read-out: Factor XIa Ki) read?
A: 3.59 nM

Q: And the Ki ([2]; read-out: Plasma Kallikrein Ki)?
A: 7.51 nM

Q: For `C[C@@H]1CCC[C@H](N2CCC(c3c(F)ccc(Cl)c3F)=CC2=O)c2cc(ccn2)-c2ccccc2NC1=O` [Example 13, (10R,14S)-14-[4-(3-Chloro-2,6-difluorophenyl)-6-oxo-1,2,3,6-tetrahydropyridin-1-yl]-10-methyl-8,16-diazatricyclo[13.3.1.0^2,7]nonadeca-1(19),2,4,6,15,17-hexaen-9-one], which Ki ([1]; read-out: Factor XIa Ki) is on record?
A: 13.7 nM

Q: What about the Ki ([2]; read-out: Plasma Kallikrein Ki) of the same compound?
A: 8 nM

Q: How did the Ki ([1]; read-out: Factor XIa Ki) turn out when `C[C@@H]1CCC[C@H](N2CCC(c3c(F)ccc(Cl)c3F)=CC2=O)c2cc(ccn2)-c2ccc(Nc3nnc(C4CC4)o3)cc2NC1=O` [Example 39, (10R,14S)-14-[4-(3-Chloro-2,6-difluorophenyl)-6-oxo-1,2,3,6-tetrahydropyridin-1-yl]-5-[(5-cyclopropyl-1,3,4-oxadiazol-2-yl)amino]-10-methyl-8,16-diazatricyclo[13.3.1.0^2,7]nonadeca-1(19),2(7),3,5,15,17-hexaen-9-one, TFA salt] was run?
A: 0.67 nM

Q: And the Ki ([2]; read-out: Plasma Kallikrein Ki)?
A: 2 nM

Q: `C[C@@H]1CCC[C@H](N2CCC(c3c(F)ccc(Cl)c3F)=CC2=O)c2cc(ccn2)-c2ccc(CO)cc2NC1=O` [Example 149, (10R,14S)-14-[4-(3-chloro-2,6-difluorophenyl)-6-oxo-1,2,3,6-tetrahydropyridin-1-yl]-5-(hydroxymethyl)-10-methyl-8,16-diazatricyclo[13.3.1.0^2,7]nonadeca-1(19),2(7),3,5,15,17-hexaen-9-one] was tested. Which Ki ([1]; read-out: Factor XIa Ki) did it give?
A: 17.5 nM

Q: What about the Ki ([2]; read-out: Plasma Kallikrein Ki) of the same compound?
A: 22.6 nM

Q: How did the Ki ([1]; read-out: Factor XIa Ki) turn out when `CC(=O)N[C@@H]1C(Nc2ccc3c(c2)NC(=O)[C@H](C)CCC[C@H](N2CCC(c4c(F)ccc(Cl)c4F)=CC2=O)c2cc-3ccn2)O[C@H](CO)[C@@H](O)[C@@H]1O` (stereo partly drawn) [Example 130, N-[(3S,4R,5S,6R)-2-{[(10R,14S)-14-[4-(3-chloro-2,6-difluorophenyl)-6-oxo-1,2,3,6-tetrahydropyridin-1-yl]-10-methyl-9-oxo-8,16-diazatricyclo[13.3.1.0^2,7]nonadeca-1(19),2,4,6,15,17-hexaen-5-yl]amino}-4,5-dihydroxy-6-(hydroxymethyl)oxan-3-yl]acetamide] was run?
A: 8.51 nM

Q: And the Ki ([2]; read-out: Plasma Kallikrein Ki)?
A: 26.5 nM

Q: For `C[C@@H]1CCC[C@H](N2CCC(c3c(F)ccc(Cl)c3F)=CC2=O)c2cccc(c2)-c2cc(C(=O)O)ccc2NC1=O` [Example 166, (10R,14S)-14-[4-(3-chloro-2,6-difluorophenyl)-6-oxo-1,2,3,6-tetrahydropyridin-1-yl]-10-methyl-9-oxo-8-azatricyclo[13.3.1.0^2,7]nonadeca-1(19),2,4,6,15,17-hexaene-4-carboxylic acid], which Ki ([1]; read-out: Factor XIa Ki) is on record?
A: 6.38 nM

Q: And the Ki ([2]; read-out: Plasma Kallikrein Ki)?
A: 113 nM

Q: `COC(=O)Nc1ccc2c(c1)NC(=O)[C@H](C)CCC[C@H](N1CCC(c3c(C#N)ccc(Cl)c3F)=CC1=O)c1cc-2cc(OC)n1` [Example 26, Methyl N-[(10R,14S)-14-[4-(3-chloro-6-cyano-2-fluorophenyl)-6-oxo-1,2,3,6-tetrahydropyridin-1-yl]-17-methoxy-10-methyl-9-oxo-8,16-diazatricyclo[13.3.1.0^2,7]nonadeca-1(18),2,4,6,15(19),16-hexaen-5-yl]carbamate] was tested. Which Ki ([1]; read-out: Factor XIa Ki) did it give?
A: 0.09 nM

Q: What about the Ki ([2]; read-out: Plasma Kallikrein Ki) of the same compound?
A: 1 nM

Q: Which Ki ([1]; read-out: Factor XIa Ki) does the source give for `COC(=O)Nc1ccc2c(c1)NC(=O)[C@H](C)CCC[C@H](n1ncc(-c3c(C#N)ccc(Cl)c3F)cc1=O)c1cc-2ccn1` [Example 79, Methyl N-[(10R,14S)-14-[4-(3-chloro-6-cyano-2-fluorophenyl)-6-oxo-1,6-dihydropyridazin-1-yl]-10-methyl-9-oxo-8,16-diazatricyclo[13.3.1.0^2,7]nonadeca-1(19),2(7),3,5,15,17-hexaen-5-yl]carbamate, TFA salt] here?
A: 0.55 nM

Q: And the Ki ([2]; read-out: Plasma Kallikrein Ki)?
A: 3 nM

Q: Which Ki ([1]; read-out: Factor XIa Ki) does the source give for `COC(=O)Nc1ccc2c(c1)NC(=O)[C@H](C)CCC[C@H](N1CCC(c3c(F)ccc(C)c3F)=CC1=O)c1cc-2ccn1` [Example 111, Methyl N-[(10R,14S)-14-[4-(2,6-difluoro-3-methylphenyl)-6-oxo-1,2,3,6-tetrahydropyridin-1-yl]-10-methyl-9-oxo-8,16-diazatricyclo[13.3.1.0^2,7]nonadeca-1(18),2,4,6,15(19),16-hexaen-5-yl]carbamate] here?
A: 1.42 nM

Q: And the Ki ([2]; read-out: Plasma Kallikrein Ki)?
A: 3.25 nM

Q: For `C[C@@H]1CCC[C@H](N2CCC(c3c(C4CC4)ccc(Cl)c3F)=CC2=O)c2cc(ccn2)-c2ccccc2NC1=O` [Example 52, (10R,14S)-14-[4-(3-Chloro-6-cyclopropyl-2-fluorophenyl)-6-oxo-1,2,3,6-tetrahydropyridin-1-yl]-10-methyl-8,16-diazatricyclo[13.3.1.0^2,7]nonadeca-1(19),2,4,6,15,17-hexaen-9-one, TFA salt], which Ki ([1]; read-out: Factor XIa Ki) is on record?
A: 45.6 nM

Q: And the Ki ([2]; read-out: Plasma Kallikrein Ki)?
A: 193 nM

Q: For `CC1CCC[C@H](N2CCC(c3c(C(F)(F)F)ccc(Cl)c3F)=CC2=O)c2cc(ccn2)-c2ccc(C(N)=O)cc2NC1=O` (stereo partly drawn) [Example 108, (14S)-14-{4-[3-Chloro-2-fluoro-6-(trifluoromethyl)phenyl]-6-oxo-1,2,3,6-tetrahydropyridin-1-yl}-10-methyl-9-oxo-8,16-diazatricyclo[13.3.1.0^2,7]nonadeca-1(18),2,4,6,15(19),16-hexaene-5-carboxamide, TFA salt], which Ki ([1]; read-out: Factor XIa Ki) is on record?
A: 8.13 nM

Q: And the Ki ([2]; read-out: Plasma Kallikrein Ki)?
A: 29 nM
